Laboratory results as given in ChEMBL document CHEMBL5036363, “Discovery and Lead Optimization of Benzene-1,4-disulfonamides as Oxidative Phosphorylation Inhibitors” (J Med Chem, 2022).

How the values were obtained:
Assay type in all cases: functional, cell-based
MIA PaCa-2 [1] = assay: Cytotoxicity against human MIA PaCa-2 cells assessed as inhibition of cell growth incubated for 7 days in glucose-containing medium by MTT assay; conditions: MIA PaCa-2, 168 h
MIA PaCa-2 [2] = assay: Cytotoxicity against human MIA PaCa-2 cells assessed as inhibition of cell growth incubated for 3 days in glucose-containing medium by MTT assay; conditions: MIA PaCa-2, 72 h
MIA PaCa-2 [3] = assay: Cytotoxicity against human MIA PaCa-2 cells assessed as inhibition of cell growth incubated for 3 days in galactose-containing medium by MTT assay; conditions: MIA PaCa-2, 72 h
BXPC-3 = assay: Cytotoxicity against human BXPC-3 cells assessed as inhibition of cell growth incubated for 7 days in glucose-containing medium by MTT assay; conditions: BXPC-3, 168 h

Row | Structure (SMILES) | IC50 (MIA PaCa-2 [1]) [nM] | IC50 (MIA PaCa-2 [2]) [nM] | IC50 (MIA PaCa-2 [3]) [nM] | IC50 (BXPC-3) [nM]
1 | CCN(CC)S(=O)(=O)c1ccc(S(=O)(=O)N2CCC[C@@H](C(=O)N3CCN(c4nnc(C(C)C)o4)CC3)C2)cc1 | 1800 | 1000 | > 10000 | 
2 | CCOC(=O)[C@H]1CCN(S(=O)(=O)c2ccc(S(=O)(=O)N(CC)CC)cc2)C1 | 29200 | > 10000 | > 10000 | 29300
3 | CCN(CC)S(=O)(=O)c1ccc(S(=O)(=O)N2CCC[C@@H](C(=O)N[C@@H]3CCN(C(=O)OC(C)(C)C)C3)C2)cc1 | 200 | 500 | > 10000 | 400
4 | CCOC(=O)[C@@H]1CCCN(S(=N)(=O)c2ccc(S(=O)(=O)N(CC)CC)cc2)C1 (stereo partly specified) | 12100 | 4700 | > 10000 | 13300
5 | CCOC(=O)[C@@H]1CCCN(S(=O)(=O)c2ccc(S(=O)(=O)N(CC)C(C)C)cc2)C1 | 1000 | 1200 | > 10000 | 1600
6 | CCN(CC)S(=O)(=O)c1ccc(S(=O)(=O)N2CCC[C@@H](C(=O)N3CCN(C(=O)OC(C)(C)C)CC3)C2)cc1 | 70 | 10 | > 10000 | 200
7 | CC(C)c1noc(N2CCN(C(=O)[C@@H]3CCCN(S(=O)(=O)c4ccc(S(=O)(=O)NC5CC5)cc4)C3)CC2)n1 | 1000 | 300 | > 10000 | 6700
8 | CC(C)c1noc(N2CCN(C(=O)[C@@H]3CCCN(S(=O)(=O)c4ccc(S(=O)(=O)NC5CCC5)cc4)C3)CC2)n1 | 600 | 200 | > 10000 | 3300
9 | CCOC(=O)[C@@H]1CCCN(S(=O)(=O)c2cccc(S(=O)(=O)N(CC)CC)c2)C1 | > 30000 | > 10000 | > 10000 | > 30000
10 | CCN(CC)S(=O)(=O)c1ccc(S(=O)(=O)N2CCC[C@@H](C(=O)N3CCC(c4nc(C(C)C)no4)CC3)C2)cc1 | 40 | 30 | > 10000 | 300
11 | CCOC(=O)[C@@H]1CCCN(C(=O)c2ccc(S(=O)(=O)N(CC)CC)cc2)C1 | > 10000 | > 3000 | > 10000 | > 10000
12 | CCOC(=O)[C@@H]1CCCN(S(=O)(=O)c2ccc(S(=O)(=O)N(CC)CC)c(F)c2)C1 | 900 | 200 | > 10000 | 1600
13 | CCOC(=O)[C@@H]1CCCN(S(=O)(=O)c2ccc(S(=O)(=O)N(CC)CC)cn2)C1 | 1300 | 300 | > 10000 | 1400
14 | CCOC(=O)N1CCC[C@@H](S(=O)(=O)c2ccc(S(=O)(=O)N(CC)CC)cc2)C1 | > 30000 | > 10000 | > 10000 | > 30000
15 | CCN(CC)S(=O)(=O)c1ccc(S(=O)(=O)N2CCC[C@@H](C(=O)NC3CN(C(=O)OC(C)(C)C)C3)C2)cc1 | 200 | 100 | > 10000 | 1800
16 | CCOC(=O)[C@@H]1CCC[C@@H](S(=O)(=O)c2ccc(S(=O)(=O)N(CC)CC)cc2)C1 (relative stereo) | 16400 | 5000 | > 10000 | 18500
17 | CCN(CC)C(=O)[C@@H]1CCCN(S(=O)(=O)c2ccc(S(=O)(=O)N(CC)CC)cc2)C1 | 6400 | 700 | > 10000 | 10500
18 | CCCN(CC)S(=O)(=O)c1ccc(S(=O)(=O)N2CCC[C@@H](C(=O)OCC)C2)cc1 | 300 |  |  | 300
19 | CCN(CC)S(=O)(=O)c1ccc(S(=O)(=O)N2CCC[C@@H](C(=O)NC3CN(C(=O)C4CC4)C3)C2)cc1 | 2800 | 3100 | > 10000 | 18500

Row | Structure (SMILES) | IC50 (MIA PaCa-2 [1]) [nM] | IC50 (MIA PaCa-2 [2]) [nM] | IC50 (MIA PaCa-2 [3]) [nM] | IC50 (BXPC-3) [nM]
20 | CCOC(=O)[C@@H]1CCCN(S(=O)(=O)c2ccc(S(=O)(=O)N3CCCCC3)cc2)C1 | 2900 | 1000 | > 10000 | 3300
21 | CCOC(=O)[C@@H]1CCN(S(=O)(=O)c2ccc(S(=O)(=O)N(CC)CC)cc2)C1 | 8600 | 1500 | > 10000 | 10000
22 | CCN(CC)S(=O)(=O)c1ccc(S(=O)(=O)N2CCC[C@@H](C(=O)N3CC4(CN(C(=O)OC(C)(C)C)C4)C3)C2)cc1 | 400 | 300 | > 10000 | 1100
23 | CCN(CC)S(=O)(=O)c1ccc(S(=O)(=O)N2CCC[C@@H](c3cc(C)no3)C2)cc1 | 4900 | 2700 | > 10000 | 7700
24 | CCN(CC)S(=O)(=O)c1ccc(S(=O)(=O)N2CCC[C@@H](C(=O)NC3CC3)C2)cc1 | 4600 | 1100 | > 10000 | 
25 | CCNS(=O)(=O)c1ccc(S(=O)(=O)N2CCC[C@@H](C(=O)N3CCN(c4nc(C(C)C)no4)CC3)C2)cc1 | 3300 | 200 | > 10000 | 6900
26 | CCOC(=O)C12CC(CN(S(=O)(=O)c3ccc(S(=O)(=O)N(CC)CC)cc3)C1)C2 | 1000 | 400 | > 10000 | 1200
27 | CCOC(=O)[C@@H]1CCC[C@H](S(=O)(=O)c2ccc(S(=O)(=O)N(CC)CC)cc2)C1 (relative stereo) | 21500 | > 10000 | > 10000 | 25200
28 | CC(C)c1noc(N2CCN(C(=O)[C@@H]3CCCN(S(=O)(=O)c4ccc(S(=O)(=O)NC(C)(C)C)cc4)C3)CC2)n1 | 300 | 100 | > 10000 | 2600
29 | CCOC(=O)[C@@H]1CCCN(S(=O)(=O)c2ccc3cc(S(=O)(=O)N(CC)CC)ccc3c2)C1 | 7400 | > 3000 | > 10000 | 13400
30 | CCCN(CCC)S(=O)(=O)c1ccc(S(=O)(=O)N2CCC[C@@H](C(=O)OCC)C2)cc1 | 2300 | 600 | > 10000 | 2500
31 | CCN(CC)S(=O)(=O)c1ccc(S(=O)(=O)N2CCC[C@@H](C(=O)N3CCN(c4nc(C)no4)CC3)C2)cc1 | 250 | 200 | > 10000 | 
32 | CCN1CC(NC(=O)[C@@H]2CCCN(S(=O)(=O)c3ccc(S(=O)(=O)N(CC)CC)cc3)C2)C1 | > 30000 | > 10000 | > 10000 | > 30000
33 | CCOC(=O)[C@@H]1CCCN(S(=O)(=O)c2ccc(S(=O)(=O)N(C)Cc3ccccc3)cc2)C1 | > 30000 |  |  | > 30000
34 | CCN(CC)S(=O)(=O)c1ccc(S(=O)(=O)N2CCC[C@@H](C(=O)N3CCN(c4nc(C(F)(F)F)no4)CC3)C2)cc1 | 600 | 60 | > 10000 | 
35 | CCN(CC)S(=O)(=O)c1ccc(S(=O)(=O)N2CCC[C@@H](C(=O)NC3CN(S(C)(=O)=O)C3)C2)cc1 | 2500 |  |  | 7400
36 | CCOC(=O)[C@@H]1CCCN(S(=O)(=O)c2ccc(S(=O)(=O)N3CCNCC3)cc2)C1 | > 30000 |  |  | > 30000
37 | CCOC(=O)C1CCN(S(=O)(=O)c2ccc(S(=O)(=O)N(CC)CC)cc2)CC1 | 27200 |  |  | 23100
38 | CCN(CC)S(=O)(=O)c1ccc(S(=O)(=O)N2CCC[C@@H](C(=O)NC3CCN(C(=O)OC(C)(C)C)CC3)C2)cc1 | 100 |  |  | 300
